{
  "source": "patent US20100292278A1",
  "about": "“Methods of treating vascular disease and injury” (priority 2009, published 2010)",
  "key": {"[1]": {"test_system": "miR-29a", "test": "qRT-PCR of miR-29 expression level in H9c2 cells", "type": "cell-based, rat", "method": "(§1) The cardiac muscle cell H9c2 was maintained in complete growth medium, supplemented with 10% FBS, penicillin G (100 IU/ml). Cells were incubated at 37° C. in a humidified atmosphere (5% CO2/95% air). Passages 5-9 were used for all experiments. Exponentially growing H9c2 cells were seeded at 1×10^5 per 100 mm plate and incubated until 60-70% confluent. Cells were treated with: 1) vehicle alone (2% ethanol); 2) 10 nM PIO; 3) 1 μM GW9662; 4) 10 nM PIO+1 μM GW9662. PIO was dissolved in 70% ethanol. 24 hours later, cells were harvested and total RNA enriched with small RNAs was isolated using mirVana miRNA Isolation Kit (Ambion). MiR-29 levels were measured using the mirVana qRT-PCR miRNA Detection Kit (Ambion). Reactions containing mirVana qRT-PCR Primer Sets were specific for rat miR-29. The appropriate cycle threshold (Ct) was determined by using the automatic baseline determination feature. The expression of miR-29 between RNA samples was calculated. Data were normalized by evaluating U6 expression."}, "[2]": {"test_system": "miR-29c", "test": "qRT-PCR of miR-29 expression level in H9c2 cells", "type": "cell-based, rat", "method": "as §1"}, "[3]": {"conditions": "10 nM PIO + 1 μM GW9662, 24 hours"}, "[4]": {"conditions": "single agent, 24 hours, 10 nM PIO or 1 μM GW9662, vs vehicle control"}},
  "data": [
    {"smiles": "O=C(Nc1ccccc1)c1cc([N+](=O)[O-])ccc1Cl", "note": "[GW9662]", "values": [
      {"measurement": "effect of PIO on miR-29a level in H9c2 cells (qRT-PCR)", "setting": "[1]; [3]", "result": "block the effect of PIO"},
      {"measurement": "miR-29a level in H9c2 cells (qRT-PCR)", "setting": "[1]; [4]", "result": "no effect"},
      {"measurement": "effect of PIO on miR-29c level in H9c2 cells (qRT-PCR)", "setting": "[2]; [3]", "result": "block the effect of PIO"},
      {"measurement": "miR-29c level in H9c2 cells (qRT-PCR)", "setting": "[2]; [4]", "result": "no effect"}
    ]}
  ]
}
